Read-outs that look alike come from different tables or passages of the source.
Legend:
E. coli HM22 = test: IC50 of killing, individual treatments vs co-treatment; assay type: cell-based; settings: Escherichia coli, read-out: IC50 (concentration required to kill 50% of the population)
[1] = test system: E. coli HM22 persister cells; assay type: cell-based, Escherichia coli; settings: for persister cells killed: 1 h in PBS, relative to untreated
[2] = test system: E. coli HM22 normal and persister cells; settings: for intracellular accumulation, persister cells relative to normal cells: treated at 100 μg/mL, reporter bioassay
[3] = test system: E. coli HM22 normal cells; test: Killing of normal (exponential phase) cells, CFU by drop plate; assay type: cell-based, Escherichia coli; settings: for normal cells killed: 100 μg/mL, 1 h in PBS
[4] = test system: E. coli JW4364 (ΔacrA mutant); test: Killing of normal cells of efflux mutant ΔacrA; settings: 100 μg/mL
Experimental: (§1) The mid-exponential phase cultures were collected by centrifugation at 13,000 rpm for 3 min at room temperature. The amount of cells used for each treatment was adjusted to OD600 of 0.5 in 500 μL. They were then washed with PBS (pH 7.4) three times. […] Relative viability was normalized by the untreated population. Each experimental condition was tested with five biological repeats.

[5] = test system: E. coli HM22 normal cells; settings: 100 μM CCCP 10 min, then 100 μg/mL minocycline 1 h
Excerpt: Carbonyl cyanide m-chlorophenylhydrazone (CCCP) was used to depotentiate the membrane of E. coli normal cells and thus, mimic the change in membrane potential of persister cells. CCCP dissipates the PMF by allowing protons to leak across the membrane and thus inactivate efflux pumps. […] An overnight culture of E. coli HM22 was sub-cultured in LB medium supplemented with DPA with a starting OD600 of 0.05 until OD600 reached 0.3-0.45. The mid-exponential culture was collected by centrifugation at a speed of 13,000 rpm for 3 min at room temperature. […] Each experimental condition was tested with three biological replicates.

[6] = test system: E. coli HM22 persister cells; test: Concurrent treatment with ampicillin in LB compared with ampicillin alone; assay type: cell-based, Escherichia coli; settings: concurrent 100 μg/mL ampicillin and 100 μg/mL test antibiotic
Excerpt: E. coli HM22 was used as the model strain in this test because it contains the hipA7 allele that leads to high-level persistence.

[7] = test system: E. coli HM22 persister cells; test: LIVE/DEAD staining of persister cells during treatment and wake-up; assay type: cell-based, Escherichia coli; settings: 100 μg/mL treated, washed
Experimental: . The present invention thus hypothesized that the killing effects took place during persister wake-up when the external antibiotic was withdrawn (after the treated cells were plated on antibiotic-free agar plates in this test). […] . […] .
Treated and untreated samples were washed once with PBS (pH 7.4). Cells were then immediately labeled with LIVE/DEAD BacLight bacterial viability kit (Life Technologies Inc., Carlsbad, CA) with a final concentration of 7.5 μM SYTO9 and 30 μM propidium iodide. After 15 min of staining, the cells were pelleted to remove the staining solution, re-suspended in PBS and vortexed briefly. Labeled cells were then imaged on microscope slides using an Axio Imager M1 fluorescence microscope (Axio Imager M1 fluorescence microscope, Carl Zeiss Inc., Berlin, Germany) with an Orca-Flash 4.0 LT camera (Hamamatsu Photonics, Hamamatsu City, Japan). At least 5 random spots were imaged for each sample. The mean gray value intensity was used to calculate the mean intensity generated from each channel (green and red). Each condition was tested with three biological replicates and 5 images were randomly taken from each sample.

[8] = test system: E. coli JW5536 (ΔacrB mutant); test: Killing of normal cells of efflux mutant ΔacrB; settings: 100 μg/mL
Experimental: as §1

[9] = test system: E. coli JW5503 (ΔtolC mutant); test: Killing of normal cells of efflux mutant ΔtolC; settings: 100 μg/mL
Experimental: as §1

AcrAB-TolC mutants = test: Killing of efflux mutants compared with wild-type (in words); assay type: cell-based, Escherichia coli; settings: normal cells of ΔacrA, ΔacrB, ΔtolC
purified 70S ribosome = settings: read-out: IC50 (concentration of the antibiotic needed to inhibit 50% of the purified 70S ribosome); cited from earlier work
[10] = test system: E. coli HM22 persister cells; test: Growth and CFU of treated persister cells during wake-up in LB
Experimental: At each designated time point, 1 mL of the cell culture was collected, washed with PBS, and centrifuged at a speed of 13,000 rpm for 3 min. Treated persister cells and untreated controls were washed and resuspended with LB medium supplemented with DPA, and incubated at 37° C. with shaking at 200 rpm. At each designated time point, samples were collected to quantify intracellular antibiotic concentration as described above and to determine growth by measuring OD600.

[11] = Validation of chloroform extraction (partition coefficient); settings: concentration in chloroform phase over aqueous phase
Experimental: To validate if chloroform is effective in extracting the antibiotics after cell lysis, a validation test was performed. Briefly, 100 μL of antibiotic solution was mixed with 100 μL chloroform in a microcentrifuge tube by vortexing. Then the solution was centrifuged for 5 min at 5,000×g. […] Each phase was collected separately and evaporated overnight in a desiccator. […] The samples were then transferred to a 96-well plate where absorbance readings were measured using an Epoch 2 Microplate Spectrophotometer (BioTek, Winooski, VT, USA). […] The concentrations were then calculated by comparing with a standard curve of absorbance with known concentrations of corresponding antibiotic.

[12] = after treatment at 100 μg/mL for 1 h

SMILES	IC50 (E. coli HM22)	persister cells killed ([1]; 100 μg/mL)	intracellular concentration in normal cells ([2]; after treatment at 100 μg/mL)	intracellular concentration in persister cells ([2]; after treatment at 100 μg/mL)	intracellular accumulation, persister cells relative to normal cells [2]	normal cells killed [3]	persister cells killed ([1]; 30 μg/mL)	persister cells killed ([1]; 50 μg/mL)	intracellular concentration in normal cells [2, 12]	intracellular concentration in persister cells [2, 12]	additional killing compared to 100 μg/mL ampicillin alone [6]	also measured
CC1(C)S[C@@H]2[C@H](NC(=O)[C@H](N)c3ccccc3)C(=O)N2[C@H]1C(=O)O [ampicillin]	1 µg/mL											
CO[C@H]1/C=C/O[C@@]2(C)Oc3c(C)c([O-])c4c(O)c(cc(O)c4c3C2=O)NC(=O)/C(C)=C\C=C\[C@H](C)[C@H](O)[C@@H](C)[C@@H](O)[C@@H](C)[C@H](OC(C)=O)[C@@H]1C.[Na+] [rifamycin SV]		75.0±5.12%	4.3 ± 0.9 µg/mL	14.0 ± 4.5 µg/mL	3.2 times	did not kill						
CN(C)c1ccc(O)c2c1C[C@H]1C[C@H]3[C@H](N(C)C)C(O)=C(C(N)=O)C(=O)[C@@]3(O)C(O)=C1C2=O [minocycline]		70.8±5.9%		26.9 ± 0.7 µg/mL			47.8±5.3%	59.0±6.0%	1.04e-05 ± 2.2e-06 µg/mL	2.64e-05 ± 3.5e-06 µg/mL	68%	normal cells of ΔacrA killed [4]: 98.6±0.3%; normal cells killed after CCCP pretreatment [5]: 95.9±2.5%; intracellular concentration in persister cells after wake-up ([2]; 4 h after washing the cells and adding LB medium): 26.8 ± 3.2 pg/mL; red/total fluorescence of treated persister cells ([7]; 0 min after adding LB): 20.2±3.3%; red/total fluorescence of treated persister cells ([7]; 30 min incubation with added LB): 37.9±3.0%; normal cells of ΔacrB killed [8]: 99.9±0.01%; normal cells of ΔtolC killed [9]: 99.7±0.03%
CN(C)[C@@H]1C(O)=C(C(N)=O)C(=O)[C@@]2(O)C(O)=C3C(=O)c4c(O)cccc4[C@@](C)(O)[C@H]3C[C@@H]12 [tetracycline]									5.5e-06 ± 1e-07 µg/mL	1.6e-06 ± 8e-07 µg/mL		
CN(C)[C@@H]1C(O)=C(C(N)=O)C(=O)[C@@]2(O)C(O)=C3C(=O)c4c(O)c(NC(=O)CN5CCCC5)cc(F)c4C[C@H]3C[C@@H]12 [eravacycline]	4.8 µg/mL	99.9±0.03%	24.2 ± 1.7 µg/mL	92.1 ± 4.4 µg/mL	3.8 times	63.5±15.8%	50.9±7.7%	98.2±0.5%			99.9%	killing of efflux mutants compared to the wild-type strain (in words) (AcrAB-TolC mutants): more killing; IC50 (purified 70S ribosome): 200 ± 100 nM; killing of persister cells in logs ([1]; 100 μg/mL): 3 log; killing of normal cells (in words) ([3]; concentrations below 100 μg/mL (0-50 μg/mL)): no significant killing; regrowth of treated persister cells after removal of extracellular antibiotic and adding LB (in words) ([10]; OD600 / growth): unable to resume growth; decrease of CFU of treated persister cells after removal of extracellular antibiotic and addition of nutrient ([10]; over 8 hours): 97.1±0.9%; Partition Coefficient [11]: 3.0 ± 0.3
